{"source": "patent US20100248390A1", "about": "“COMPOSITIONS AND METHODS FOR IDENTIFYING LIGANDS OF ODORANT RECEPTORS” (DUKE UNIVERSITY, priority 2009, published 2010)", "key": {"[1]": {"molecular_target": "T1, human odorant receptors (ORs) (Homo sapiens, UniProt Q9Y3N9)", "T1 construct": "OR open reading frames were amplified from genomic DNA; expressed in transfected cells; host or cells: Hana3A cells, co-transfected with RTP1S, CRE-luciferase and pRL-SV40", "T1 sequence (Q9Y3N9 1-320)": "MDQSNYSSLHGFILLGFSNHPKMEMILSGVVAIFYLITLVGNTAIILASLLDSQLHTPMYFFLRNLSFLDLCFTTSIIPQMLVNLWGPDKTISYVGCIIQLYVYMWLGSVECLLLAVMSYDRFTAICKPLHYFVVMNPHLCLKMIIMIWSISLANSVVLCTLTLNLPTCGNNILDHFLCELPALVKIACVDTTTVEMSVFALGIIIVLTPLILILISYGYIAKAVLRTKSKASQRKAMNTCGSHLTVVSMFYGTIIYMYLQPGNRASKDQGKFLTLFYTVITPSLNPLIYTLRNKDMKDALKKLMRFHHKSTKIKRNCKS", "experiment": "CRE-luciferase assay of odorant receptor activation (Dual-Glo, Hana3A cells, RTP1S), dose-response EC50", "type": "cell-based", "procedure,_shortened": "(§1)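 Hana3A cells were co-transfected with Rho-tagged OR, RTP1S, CRE-luciferase and pRL-SV40, then exposed to odorant in CD293 medium for 4 hrs at 37° C. Firefly luminescence was divided by Renilla and normalized as (LN−Lmin)/(Lmax−Lmin) per plate set. Each dose was tested at least three times, and EC50 came from sigmoidal fits.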"}, "[2]": {"molecular_target": "T2, human odorant receptors (ORs) (Homo sapiens, UniProt Q9P1Q5)", "T2 construct": "OR open reading frames were amplified from genomic DNA; expressed in transfected cells; host or cells: Hana3A cells, co-transfected with RTP1S, CRE-luciferase and pRL-SV40", "T2 sequence (Q9P1Q5 1-309)": "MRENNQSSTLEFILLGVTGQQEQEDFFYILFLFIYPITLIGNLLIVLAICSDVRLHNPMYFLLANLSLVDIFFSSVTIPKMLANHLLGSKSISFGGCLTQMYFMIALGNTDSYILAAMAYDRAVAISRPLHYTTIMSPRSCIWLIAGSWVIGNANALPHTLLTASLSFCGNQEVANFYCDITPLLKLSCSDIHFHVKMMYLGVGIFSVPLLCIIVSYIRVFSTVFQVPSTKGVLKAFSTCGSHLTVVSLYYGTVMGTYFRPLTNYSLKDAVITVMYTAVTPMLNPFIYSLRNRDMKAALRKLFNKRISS", "experiment": "CRE-luciferase assay of odorant receptor activation (Dual-Glo, Hana3A cells, RTP1S), dose-response EC50", "type": "cell-based", "procedure,_shortened": "as §1"}, "[3]": {"conditions": "receptor OR2W1, 0 = no response"}, "[4]": {"conditions": "receptor OR1A1, 0 = no response"}, "[5]": {"conditions": "receptor OR2W1, 0 = no response, read-out: log EC50, OR2W1 (converted)"}, "[6]": {"conditions": "receptor OR1A1, 0 = no response, read-out: log EC50, OR1A1 (converted)"}, "[7]": {"conditions": "receptor OR2W1, read-out: log EC50 (Table 4 value), OR2W1 (converted)"}, "[8]": {"conditions": "receptor OR1A1, read-out: log EC50 (Table 4 value), OR1A1 (converted)"}, "[9]": {"conditions": "receptor OR2W1, read-out: log EC50 of odorant at OR2W1 (0 = no response) (converted)"}, "[10]": {"conditions": "receptor OR1A1, read-out: log EC50 of odorant at OR1A1 (0 = no response) (converted)"}}, "note": "Like-named read-outs stand apart in the source and are kept apart here.", "data": [{"compound": "C=C(C)C1CC=C(C)C(=O)C1", "note": "(single isomer, unassigned; (-)) [(−)-Carvone]", "values": [{"measurement": "log EC50, OR2W1", "setting": "[1]; [3]", "result": "−4.657"}, {"measurement": "log EC50, OR1A1", "setting": "[2]; [4]", "result": "−5.765"}]}, {"compound": "CC(C)=CCCC(C)CCO", "note": "(single isomer, unassigned; (-)) [(−)-b-C ? inedol]", "values": [{"measurement": "EC50", "setting": "[1]; [5]", "result": 7.8, "unit": "µM"}, {"measurement": "EC50", "setting": "[2]; [6]", "result": 91.4, "unit": "µM"}]}, {"compound": "CCCCCCCCCCO", "note": "[1-Decanol]", "values": [{"measurement": "EC50", "setting": "[1]", "result": 43.2, "unit": "µM"}, {"measurement": "EC50", "setting": "[2]", "result": 828, "unit": "µM"}]}, {"compound": "CCCCCCCO", "note": "[1-Heptanol]", "values": [{"measurement": "EC50", "setting": "[1]; [5]", "result": 14.8, "unit": "µM"}, {"measurement": "EC50", "setting": "[2]; [6]", "result": 971, "unit": "µM"}]}, {"compound": "O=C1CCOc2ccccc21", "note": "[4-Chromanone]", "values": [{"measurement": "EC50", "setting": "[1]; [7]", "result": 91, "unit": "µM"}, {"measurement": "EC50", "setting": "[2]; [8]", "result": 462, "unit": "µM"}]}, {"compound": "C=C(C)[C@H]1CC=C(C)C(=O)C1", "note": "[(+)-Carvone]", "values": [{"measurement": "log EC50, OR2W1", "setting": "[1]; [3]", "result": "−4.646"}, {"measurement": "log EC50, OR1A1", "setting": "[2]; [4]", "result": "−5.035"}]}, {"compound": "C=C(C)[C@@H]1CC[C@@H](C)C(=O)C1", "note": "[(+)-Dihydrocarvone]", "values": [{"measurement": "log EC50, OR2W1", "setting": "[1]; [3]", "result": "−4.755"}, {"measurement": "log EC50, OR1A1", "setting": "[2]; [4]", "result": "−4.992"}]}, {"compound": "CC(=O)c1ccccc1", "note": "[Acetophenone]", "values": [{"measurement": "EC50", "setting": "[1]; [7]", "result": 42.5, "unit": "µM"}]}, {"compound": "C=CCOC(=O)Cc1ccccc1", "note": "[Allyl phenylacetate]", "values": [{"measurement": "EC50", "setting": "[1]", "result": 15.4, "unit": "µM"}, {"measurement": "EC50", "setting": "[2]", "result": 7.6, "unit": "µM"}]}, {"compound": "CC(=O)OCc1ccccc1", "note": "[Benzyl acetate]", "values": [{"measurement": "EC50", "setting": "[1]; [7]", "result": 16.4, "unit": "µM"}, {"measurement": "EC50", "setting": "[2]; [8]", "result": 406, "unit": "µM"}]}, {"compound": "O=c1ccc2ccccc2o1", "note": "[Coumarin]", "values": [{"measurement": "EC50", "setting": "[1]; [7]", "result": 86.1, "unit": "µM"}]}, {"compound": "CCCCCC1=C(C)CCC1=O", "note": "[Dihydroiasmone]", "values": [{"measurement": "log EC50 (Table 4 value), OR2W1", "setting": "[1]; receptor OR2W1", "result": "−4.246"}, {"measurement": "log EC50 (Table 4 value), OR1A1", "setting": "[2]; receptor OR1A1", "result": "−7.242"}]}, {"compound": "CC(C)=CCC/C(C)=C/CO", "note": "[Getaniol]", "values": [{"measurement": "EC50", "setting": "[1]; [7]", "result": 18.4, "unit": "µM"}, {"measurement": "EC50", "setting": "[2]; [8]", "result": 341, "unit": "µM"}]}, {"compound": "CCCCCCCCCS", "note": "[Nonanethiol]", "values": [{"measurement": "EC50", "setting": "[1]; [9]", "result": 86.1, "unit": "µM"}, {"measurement": "EC50", "setting": "[2]; [10]", "result": 571, "unit": "µM"}]}, {"compound": "CCCCCCCCC(=O)O", "note": "[Nonanoic acid]", "values": [{"measurement": "EC50", "setting": "[1]; [9]", "result": 189, "unit": "µM"}]}, {"compound": "CCCCCCCCS", "note": "[Octanethiol]", "values": [{"measurement": "EC50", "setting": "[1]; [9]", "result": 92.7, "unit": "µM"}, {"measurement": "EC50", "setting": "[2]; [10]", "result": 594, "unit": "µM"}]}, {"compound": "CCCCCCCC(=O)O", "note": "[Octanoic Acid]", "values": [{"measurement": "EC50", "setting": "[1]; [9]", "result": 14.2, "unit": "µM"}]}, {"compound": "CC(=O)Oc1ccccc1", "note": "[Phenyl acetate]", "values": [{"measurement": "EC50", "setting": "[1]; [9]", "result": 84.9, "unit": "µM"}]}]}
